Results reported in patent publication US8796327B2, “Method for inhibiting production of cytokines of T helper cell type II and/or inhibiting production of chemokines using brazilin” (China Medical University, priority 2010, dated 2014).

Legend:
[1] = test system: IL-5; experiment: ELISA of IL-5 in bronochial alveolar lavage fluid, mice with asthma (OVA); assay type: in vivo, BALB/c mice; conditions: for IL-5 concentration (pico-gram/ml): i.p. or i.t., OVA-sensitized BALB/c mice
Procedure: (§1) In Example 2, mice with asthma were used to conduct in vivo experiments, and ovalbumin (OVA) was used as an allergen.
(§2) The mice were sensitized (or challenged) according to the steps shown in FIG. 9 (see Lee et al., Lentiviral-mediated GATA-3 RNAi decreases allergic airway inflammation and hyperresponsiveness. Molecular Therapy, 2008; 16:60-65, which is incorporated herein in its entirety by reference). First, 50 μg OVA (using 2 mg alumina (Alum, Alumlmuject, Pierce Chemical, Rockford, Ill., USA) as an adjuvant) was injected into six to eight-week-old BALB/c female mice (from National Laboratory Animal Center, Taiwan) by intraperitoneal injection (i.p.). At 0th, 14th, and 28th day, the mice were injected with OVA at the same dosage. Before the administration of OVA at the forty-first and the forty-second days, different dosages of brazilin (high dose: 430 μg/mice; low dose: 43 μg/mice) were administrated to the mice by intraperitoneal injection (i.p.) or intratracheal instillation (i.t.). During the fortieth to the forty-second days, 100 μg OVA was dissolved in 40 μl PBS, and was administrated to the mice by intranasal instillation (i.n.) (once everyday, for three days). At the forty-third day, airway hyperresponsiveness of the mice was observed. […]
(§3) In Experiment D, after 24 hours from the last administration of OVA into the noses of the mice, the mice were sacrificed, and the blood was collected from the orbital cavities of the mice. […] Cells obtained after the centrifugation were re-suspended in a 1 ml HBSS buffer solution, and the total cell number was counted with a hemocytometer.
(§4) The bronochial alveolar lavage fluid collected in Experiment E was centrifuged at 4° C. and with a revolution speed of 400 g for 10 minutes. After the supernatant was collected, the expression of eotaxin, IL-4, IL-5, and IFN-γ was analyzed with an ELISA kit (R&D Systems, Inc., USA). […]

[2] = test system: EL-4 T lymphoma cells; experiment: Trypan blue exclusion assay, cell viability; assay type: cell-based, mouse; conditions: for Cell viability (%): EL-4 cells
Procedure: First, in an incubator containing 5 vol % of CO2 at 37° C., EL-4 mouse T lymphoma cells (commercially available from ATCC, Manassas, Va., America) were cultured in the DMEM culture medium (containing 10 wt % of thermally deactivated FBS), and were sub-cultured at a ratio of 1:3.
Then, at a density of 5×10^5 counts/ml, the T lymphoma cells were bred in a six-well culture dish, and at the 0th minute, brazilin of different concentrations (0.3, 1, 3, 10, or 30 micromole (μM)) was added into the cell culture solution at an amount of 1 μl/ml-cell culture solution. Then, the cells were put into the incubator to be cultured therein. […] During the process of cell culture, the trypan blue exclusion assay was employed to observe effect of the brazilin on the cell viability, results of which are shown in Table 1 and FIG. 1.

[3] = test system: eotaxin; experiment: ELISA of eotaxin in bronochial alveolar lavage fluid, mice with asthma (OVA); assay type: in vivo, BALB/c mice; conditions: for Eotaxin concentration (pico-gram/ml): i.p. or i.t., OVA-sensitized BALB/c mice
Procedure: as §1, §2, §3, §4

[4] = test system: IL-5 mRNA; experiment: Real-time PCR of IL-5 mRNA in EL-4 T lymphoma cells; assay type: cell-based, mouse; conditions: for Expression level of IL-5 mRNA: PMA + cAMP stimulated EL-4 cells, corrected to HPRT
Procedure: (§5) Then, at a density of 5×10^5 counts/ml, the T lymphoma cells were bred in a six-well culture dish, and at the 0th minute, brazilin of different concentrations (0.3, 1, 3, 10, or 30 micromole (μM)) was added into the cell culture solution at an amount of 1 μl/ml-cell culture solution. Then, the cells were put into the incubator to be cultured therein. 30 minutes later, at an amount of 1 μl/ml-cell culture solution, 5 μg/ml PMA and cAMP at a 250 mmol concentration were added to the cell culture solution to stimulate the expression of IL-4 and IL-5 of the T lymphoma cells. During the process of cell culture, the trypan blue exclusion assay was employed to observe effect of the brazilin on the cell viability, results of which are shown in Table 1 and FIG. 1.
(§6) Expression of mRNA of IL-4, IL-5, GATA-3, c-maf, and T-bet were analyzed in a quantitative way through real-time polymerase chain reaction (PCR) by extracting RNA in the cells obtained in Experiment A (using an RNA purifying kit), converting the RNA into cDNA through reverse transcription, and using an ABI PRISM 7700 sequence detector (Applied Biosystems, Foster City, Calif., America) to analyze the gene expression of mRNA. The PCR was carried out under the following conditions: 50° C., 2 minutes; 95° C., 10 minutes; 60° C., 1 minute; then repeating this cycle forty times. A threshold cycle (or referred to as Ct) was used to represent the expression level of each gene, and an expression level of hypoxanthine-guanine phosphoribosy transferase (HPRT) genes of the endogenous control group was used for correction of the expression level of mRNA.

[5] = test system: invasion of inflammatory cells into the lungs; experiment: Histopathological examination of H&E stained lung tissue slices, mice with asthma (OVA); assay type: in vivo; conditions: OVA-sensitized BALB/c mice, result in words
Procedure: as §1, §2

[6] = test system: c-maf mRNA; experiment: Real-time PCR of c-maf mRNA in EL-4 T lymphoma cells; assay type: cell-based, mouse; conditions: for Expression level of c-maf mRNA: PMA + cAMP stimulated EL-4 cells, corrected to HPRT
Procedure: as §5, §6

SMILES: Oc1ccc2c(c1)OC[C@]1(O)Cc3cc(O)c(O)cc3[C@H]21 [brazilin]
- production of IL-5 cytokine ([1]; BALB/c mice, result in words): inhibited
- IL-5 concentration (pico-gram/ml) ([1]; High dose (430 μg/mice)): 52.10 ± 6.223 pico-gram/ml
- IL-5 concentration (pico-gram/ml) ([1]; Low dose (43 μg/mice)): 70.65 ± 6.510 pico-gram/ml
- effect on the growth of EL-4 T lymphoma cells ([2]; 0.3-30 μM, result in words): no effect
- cytotoxicity ([2]; EL-4 T lymphoma cells, 0.3-30 μM, result in words): no cytotoxicity
- Cell viability (%) ([2]; brazilin 0.3 μM, no PMA + cAMP): 102.8 ± 6.895%
- Cell viability (%) ([2]; brazilin 0.3 μM, with PMA + cAMP): 115.9 ± 6.968%
- Cell viability (%) ([2]; brazilin 1 μM, no PMA + cAMP): 106.5 ± 1.190%
- Cell viability (%) ([2]; brazilin 1 μM, with PMA + cAMP): 107.4 ± 3.829%
- Cell viability (%) ([2]; brazilin 3 μM, no PMA + cAMP): 101.5 ± 4.226%
- Cell viability (%) ([2]; brazilin 3 μM, with PMA + cAMP): 109.0 ± 3.764%
- Cell viability (%) ([2]; brazilin 10 μM, no PMA + cAMP): 111.5 ± 5.126%
- Cell viability (%) ([2]; brazilin 10 μM, with PMA + cAMP): 100.8 ± 3.257%
- Cell viability (%) ([2]; brazilin 30 μM, no PMA + cAMP): 98.17 ± 8.439%
- Cell viability (%) ([2]; brazilin 30 μM, with PMA + cAMP): 104.7 ± 2.495%
- production of β-chemokine, eotaxin ([3]; BALB/c mice, result in words): inhibited
- Eotaxin concentration (pico-gram/ml) ([3]; High dose (430 μg/mice)): 12.61 ± 1.334 pico-gram/ml
- Eotaxin concentration (pico-gram/ml) ([3]; Low dose (43 μg/mice)): 18.64 ± 3.784 pico-gram/ml
- expression of mRNA of IL-5 ([4]; EL-4 cells, result in words): inhibited
- Expression level of IL-5 mRNA ([4]; brazilin 0.3 μM): 1397 ± 172.2
- Expression level of IL-5 mRNA ([4]; brazilin 1 μM): 1225 ± 47.23
- Expression level of IL-5 mRNA ([4]; brazilin 3 μM): 1009 ± 77.66
- Expression level of IL-5 mRNA ([4]; brazilin 10 μM): 926.2 ± 40.70
- Expression level of IL-5 mRNA ([4]; brazilin 30 μM): 594.8 ± 252.9
- invasion of inflammatory cells (H&E lung slices, FIG. 11) [5]: reduced
- expression of mRNA of transcription factor c-maf ([6]; EL-4 cells, result in words): inhibited
- Expression level of c-maf mRNA ([6]; brazilin 0.3 μM): 3.388 ± 0.2410
- Expression level of c-maf mRNA ([6]; brazilin 1 μM): 3.318 ± 0.1177
- Expression level of c-maf mRNA ([6]; brazilin 3 μM): 2.846 ± 0.2632
- Expression level of c-maf mRNA ([6]; brazilin 10 μM): 1.826 ± 0.6278
- Expression level of c-maf mRNA ([6]; brazilin 30 μM): 1.302 ± 0.1868
